These results are taken from ChEMBL document CHEMBL3994621, “Curculactones A and B induced the differentiation of C3H10T1/2 and MC3T3-E1 cells to osteoblasts” (Bioorg Med Chem Lett, 2017).

Structures are written as SMILES. The source made the active and inactive calls. No cut-off for these calls is given here.

The subject of data set [1] is MC3T3-E1. The data set can be described thus: Induction of osteoblast differentiation in […] MC3T3-E1 cells assessed as increase in Dlx5 mRNA expression at 5 uM after 4 days by RT-PCR method. The format is functional, cell-based.
Data set [2] deals with C3H 10T1/2. The data set can be described thus: Induction of osteoblast differentiation in mouse C3H10T1/2 cells assessed as increase in ALP mRNA expression at 5 uM after 4 days by RT-PCR method. The class given is functional, cell-based.
For data set [3], the system named is MC3T3-E1. The data set can be described thus: Induction of osteoblast differentiation in […] MC3T3-E1 cells assessed as increase in ALP mRNA expression at 5 uM after 4 days by RT-PCR method. The format is functional, cell-based.
For data set [4], the system named is C3H 10T1/2. The data set can be described thus: Cytotoxicity against mouse C3H10T1/2 cells assessed as reduction in cell viability up to 5 uM after 48 hrs by MTT assay. The format is cell-based. The note with it: c3h 10t1/2, 48 h.
Data set [5] concerns C3H 10T1/2. The data set can be described thus: Induction of osteoblast differentiation in mouse C3H10T1/2 cells assessed as increase in Runx2 mRNA expression at 5 uM after 4 days by RT-PCR method. The class given is functional, cell-based.
In data set [6] the test system is MC3T3-E1. The data set can be described thus: Induction of osteoblast differentiation in […] MC3T3-E1 cells assessed as increase in Runx2 mRNA expression at 5 uM after 4 days by RT-PCR method. The format is functional, cell-based.
The test system of data set [7] is MC3T3-E1. The data set can be described thus: Induction of osteoblast differentiation in […] MC3T3-E1 cells assessed as increase in ALP activity at 5 uM after 4 days using BCIP/NBT liquid substrate. The format is functional, cell-based.
Data set [8] in a line: Solubility of the compound in DMSO. The class given is physicochemical.
Data set [9] has as its system C3H 10T1/2. The data set can be described thus: Induction of osteoblast differentiation in mouse C3H10T1/2 cells assessed as increase in Dlx5 mRNA expression at 5 uM after 4 days by RT-PCR method. The format is functional, cell-based.
The subject of data set [10] is MC3T3-E1. The data set can be described thus: Induction of osteoblast differentiation in […] MC3T3-E1 cells assessed as increase in osteocalcin mRNA expression at 5 uM after 4 days by RT-PCR method. The class given is functional, cell-based.
In data set [11] the test system is C3H 10T1/2. The data set can be described thus: Induction of osteoblast differentiation in mouse C3H10T1/2 cells assessed as increase in osteocalcin mRNA expression at 5 uM after 4 days by RT-PCR method. The format is functional, cell-based.
Data set [12] deals with MC3T3-E1. The data set can be described thus: Induction of mineralization in […] MC3T3-E1 cells at 5 uM after 14 days by alizarin red S staining based assay. The format is functional, cell-based.

On to `COc1cc([C@H]2CC(=O)O[C@H]2C)ccc1O` [CURCULACTONE A], for which the outcome with MC3T3-E1 [1], with C3H 10T1/2 [2], in the data set with MC3T3-E1 [3], in the data set on C3H 10T1/2 [5], in the data set on MC3T3-E1 [6] and with MC3T3-E1 [7] was Active. The result in the data set with C3H 10T1/2 [9], in the data set with MC3T3-E1 [10], in the data set with C3H 10T1/2 [11] and in the data set with MC3T3-E1 [12] was Active. Also, the Activity result in the data set on C3H 10T1/2 [4] was “Non-Toxic”. Besides, the solubility result in data set [8] is “Soluble”.
Regarding `COc1cc(O)cc([C@@H]2CC(=O)O[C@H]2C)c1` [CURCULACTONE B], the outcome in the data set on MC3T3-E1 [1], in the data set with C3H 10T1/2 [2], with MC3T3-E1 [3], with C3H 10T1/2 [5], with MC3T3-E1 [6] and with MC3T3-E1 [7] was Active. Also, the outcome with C3H 10T1/2 [9], in the data set on MC3T3-E1 [10], in the data set with C3H 10T1/2 [11] and with MC3T3-E1 [12] was Active. Besides, the Activity entry with C3H 10T1/2 [4] is “Non-Toxic”. For the same compound, the solubility result in data set [8] is reported as “Soluble”.
